Test results reported in patent US20100099561A1, “HETEROBICYCLIC ALKYLTHIO-BRIDGED ISOXAZOLINES” (E.I. DU PONT DE NEMOURS AND COMPANY, priority 2008, published 2010).

What was measured:
Format in all cases: in vivo
corn (Zea mays) = assay: Test B preemergence, corn; details: scale 0 to 100
Text: (§1) Seeds of plant species selected from blackgrass (Alopecurus myosuroides), downy bromegrass (Bromus tectorum), green foxtail (Setaria viridis), Italian ryegrass (Lolium multiflorum), wheat (Triticum aestivum), wild oat (Avena fatua), catchweed bedstraw (Galium aparine), bermudagrass (Cynodon dactylon), Surinam grass (Brachiaria decumbens), cocklebur (Xanthium strumarium), corn (Zea mays), large crabgrass (Digitaria sanguinalis), woolly cupgrass (Eriochloa villosa), giant foxtail (Setaria faberii), goosegrass (Eleusine indica), johnsongrass (Sorghum halepense), kochia (Kochia scoparia), lambsquarters (Chenopodium album), morningglory (Ipomoea coccinea), nightshade (eastern black nightshade, Solanum ptycanthum), yellow nutsedge (Cyperus esculentus), pigweed (Amaranthus retroflexus), ragweed (common ragweed, Ambrosia elatior), soybean (Glycine max), sunflower (common oilseed sunflower, Helianthus annuus), Russian thistle (Salsola kali), and velvetleaf (Abutilon theophrasti) were planted into a blend of loam soil and sand and treated preemergence with test compounds formulated in a non-phytotoxic solvent mixture which included a surfactant. Treated plants and controls were maintained in a greenhouse for 13 to 15 days, after which time all species were compared to controls and visually evaluated. Plant response ratings, summarized in Table B, are based on a scale of 0 to 100 where 0 is no effect and 100 is complete control. A dash (-) response means no test result.

[1] = system: blackgrass (Alopecurus myosuroides); assay: Test B preemergence, blackgrass; details: scale 0 to 100
Text: as §1

[2] = system: large crabgrass (Digitaria sanguinalis); assay: Test A postemergence, large crabgrass; details: 0 to 100 scale (0 no effect, 100 complete control)
How it was run: (§2)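 Each compound, in a non-phytotoxic solvent mixture with surfactant, is applied to soil at planting and, concurrently, to young one- to two-leaf plants. After approximately ten greenhouse days, visual response is rated 0 (no effect) to 100 (complete control) against untreated controls.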

[3] = system: wheat (Triticum aestivum); assay: Test B preemergence, wheat; details: Preemergence, scale 0 to 100
Text: as §1

[4] = system: goosegrass (Eleusine indica); assay: Test B preemergence, goosegrass; details: scale 0 to 100
Text: as §1

[5] = system: bermudagrass (Cynodon dactylon); assay: Test B preemergence, bermudagrass; details: scale 0 to 100
Text: as §1

[6] = system: velvetleaf (Abutilon theophrasti); assay: Test A postemergence, velvetleaf; details: 0 to 100 scale (0 no effect, 100 complete control)
How it was run: as §2

[7] = system: woolly cupgrass (Eriochloa villosa); assay: Test B preemergence, woolly cupgrass; details: scale 0 to 100
Text: as §1

[8] = system: morningglory (Ipomoea spp.); assay: Test A postemergence, morningglory; details: 0 to 100 scale (0 no effect, 100 complete control)
How it was run: as §2

rice (Oryza sativa) = assay: Test B flooded paddy test, rice; details: Flood, scale 0 to 100
How it was run: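 Rice, umbrella sedge, ducksalad and barnyardgrass at 2-leaf stage; pots flooded to 3 cm, compounds applied into paddy water, depth held throughout. Greenhouse 13 to 15 days, then visual rating vs untreated controls on 0–100 scale (0 no effect, 100 complete control); dash means no test result.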

[9] = system: wheat (Triticum aestivum); assay: Test A postemergence, wheat; details: 0 to 100 scale (0 no effect, 100 complete control)
How it was run: as §2

[10] = system: ragweed (common ragweed, Ambrosia elatior); assay: Test B preemergence, ragweed; details: scale 0 to 100
Text: as §1

[11] = system: Italian ryegrass (Lolium multiflorum); assay: Test B preemergence, Italian ryegrass; details: Preemergence, scale 0 to 100
Text: as §1

[12] = system: pigweed (Amaranthus retroflexus); assay: Test A postemergence, pigweed; details: 0 to 100 scale (0 no effect, 100 complete control)
How it was run: as §2

[13] = system: morningglory (Ipomoea spp.); assay: Test A preemergence, morningglory; details: 0 to 100 scale (0 no effect, 100 complete control)
How it was run: as §2

[14] = system: lambsquarters (Chenopodium album); assay: Test B preemergence, lambsquarters; details: scale 0 to 100
Text: as §1

[15] = system: morningglory (Ipomoea coccinea); assay: Test B preemergence, morningglory; details: scale 0 to 100
Text: as §1

[16] = system: large crabgrass (Digitaria sanguinalis); assay: Test B preemergence, large crabgrass; details: scale 0 to 100
Text: as §1

[17] = system: wheat (Triticum aestivum); assay: Test A preemergence, wheat; details: 0 to 100 scale (0 no effect, 100 complete control)
How it was run: as §2

CC1(C)CC(S(=O)(=O)Cc2c(C(F)(F)C(F)(F)F)nc3n(c2=O)CCCC3)=NO1 [Compound 21]
Plant response rating, Corn (corn (Zea mays); 16 g ai/ha): 0 | Plant response rating, Corn (corn (Zea mays); 31 g ai/ha): 0 | Plant response rating, Corn (corn (Zea mays); 62 g ai/ha): 0 | Plant response rating, Corn (corn (Zea mays); 125 g ai/ha): 10 | Plant response rating, Blackgrass ([1]; 16 g ai/ha): 40 | Plant response rating, Blackgrass ([1]; 31 g ai/ha): 40 | Plant response rating, Blackgrass ([1]; 62 g ai/ha): 50 | Plant response rating, Blackgrass ([1]; 125 g ai/ha): 98 | Plant response rating, Crabgrass, Large ([2]; 125 g ai/ha): 50 | Plant response rating, Crabgrass, Large ([2]; 500 g ai/ha): 80 | Plant response rating, Wheat ([3]; 16 g ai/ha): 0 | Plant response rating, Wheat ([3]; 31 g ai/ha): 0 | Plant response rating, Wheat ([3]; 62 g ai/ha): 0 | Plant response rating, Wheat ([3]; 125 g ai/ha): 0 | Plant response rating, Goosegrass ([4]; 16 g ai/ha): 50 | Plant response rating, Goosegrass ([4]; 31 g ai/ha): 98 | Plant response rating, Goosegrass ([4]; 62 g ai/ha): 100 | Plant response rating, Goosegrass ([4]; 125 g ai/ha): 100 | Plant response rating, Bermudagrass ([5]; 16 g ai/ha): 90 | Plant response rating, Bermudagrass ([5]; 31 g ai/ha): 100 | Plant response rating, Bermudagrass ([5]; 62 g ai/ha): 100 | Plant response rating, Bermudagrass ([5]; 125 g ai/ha): 100 | Plant response rating, Velvetleaf ([6]; 125 g ai/ha): 0 | Plant response rating, Velvetleaf ([6]; 500 g ai/ha): 10 | Plant response rating, Cupgrass, Woolly ([7]; 16 g ai/ha): 100 | Plant response rating, Cupgrass, Woolly ([7]; 31 g ai/ha): 100 | Plant response rating, Cupgrass, Woolly ([7]; 62 g ai/ha): 100 | Plant response rating, Cupgrass, Woolly ([7]; 125 g ai/ha): 100 | Plant response rating, Morningglory ([8]; 125 g ai/ha): 0 | Plant response rating, Morningglory ([8]; 500 g ai/ha): 40 | Plant response rating, Rice (rice (Oryza sativa); 62 g ai/ha): 0 | Plant response rating, Rice (rice (Oryza sativa); 250 g ai/ha): 0 | Plant response rating, Wheat ([9]; 125 g ai/ha): 0 | Plant response rating, Wheat ([9]; 500 g ai/ha): 20 | Plant response rating, Ragweed ([10]; 16 g ai/ha): 0 | Plant response rating, Ragweed ([10]; 31 g ai/ha): 0 | Plant response rating, Ragweed ([10]; 62 g ai/ha): 0 | Plant response rating, Ragweed ([10]; 125 g ai/ha): 10 | Plant response rating, Ryegrass, Italian ([11]; 16 g ai/ha): 0 | Plant response rating, Ryegrass, Italian ([11]; 31 g ai/ha): 0 | Plant response rating, Ryegrass, Italian ([11]; 62 g ai/ha): 0 | Plant response rating, Ryegrass, Italian ([11]; 125 g ai/ha): 40 | Plant response rating, Pigweed ([12]; 125 g ai/ha): 0 | Plant response rating, Pigweed ([12]; 500 g ai/ha): 10 | Plant response rating, Morningglory ([13]; 125 g ai/ha): 0 | Plant response rating, Morningglory ([13]; 500 g ai/ha): 50 | Plant response rating, Lambsquarters ([14]; 16 g ai/ha): 0 | Plant response rating, Lambsquarters ([14]; 31 g ai/ha): 0 | Plant response rating, Lambsquarters ([14]; 62 g ai/ha): 0 | Plant response rating, Lambsquarters ([14]; 125 g ai/ha): 98 | Plant response rating, Morningglory ([15]; 16 g ai/ha): 0 | Plant response rating, Morningglory ([15]; 31 g ai/ha): 10 | Plant response rating, Morningglory ([15]; 62 g ai/ha): 80 | Plant response rating, Morningglory ([15]; 125 g ai/ha): 100 | Plant response rating, Crabgrass, Large ([16]; 16 g ai/ha): 20 | Plant response rating, Crabgrass, Large ([16]; 31 g ai/ha): 95 | Plant response rating, Crabgrass, Large ([16]; 62 g ai/ha): 98 | Plant response rating, Crabgrass, Large ([16]; 125 g ai/ha): 100 | Plant response rating, Wheat ([17]; 125 g ai/ha): 0 | Plant response rating, Wheat ([17]; 500 g ai/ha): 40

CC1(C)CC(S(=O)(=O)Cc2c(C(F)(F)F)nc3ccsn3c2=O)=NO1 [Compound 16]
Plant response rating, Corn (corn (Zea mays); 16 g ai/ha): 0 | Plant response rating, Corn (corn (Zea mays); 31 g ai/ha): 0 | Plant response rating, Corn (corn (Zea mays); 62 g ai/ha): 0 | Plant response rating, Corn (corn (Zea mays); 125 g ai/ha): 0 | Plant response rating, Blackgrass ([1]; 16 g ai/ha): 10 | Plant response rating, Blackgrass ([1]; 31 g ai/ha): 85 | Plant response rating, Blackgrass ([1]; 62 g ai/ha): 90 | Plant response rating, Blackgrass ([1]; 125 g ai/ha): 100 | Plant response rating, Crabgrass, Large ([2]; 125 g ai/ha): 80 | Plant response rating, Crabgrass, Large ([2]; 500 g ai/ha): 90 | Plant response rating, Wheat ([3]; 16 g ai/ha): 0 | Plant response rating, Wheat ([3]; 31 g ai/ha): 0 | Plant response rating, Wheat ([3]; 62 g ai/ha): 0 | Plant response rating, Wheat ([3]; 125 g ai/ha): 0 | Plant response rating, Goosegrass ([4]; 16 g ai/ha): 85 | Plant response rating, Goosegrass ([4]; 31 g ai/ha): 95 | Plant response rating, Goosegrass ([4]; 62 g ai/ha): 100 | Plant response rating, Goosegrass ([4]; 125 g ai/ha): 100 | Plant response rating, Velvetleaf ([6]; 125 g ai/ha): 30 | Plant response rating, Velvetleaf ([6]; 500 g ai/ha): 60 | Plant response rating, Cupgrass, Woolly ([7]; 16 g ai/ha): 0 | Plant response rating, Cupgrass, Woolly ([7]; 31 g ai/ha): 25 | Plant response rating, Cupgrass, Woolly ([7]; 62 g ai/ha): 95 | Plant response rating, Cupgrass, Woolly ([7]; 125 g ai/ha): 98 | Plant response rating, Morningglory ([8]; 125 g ai/ha): 0 | Plant response rating, Morningglory ([8]; 500 g ai/ha): 50 | Plant response rating, Rice (rice (Oryza sativa); 62 g ai/ha): 0 | Plant response rating, Rice (rice (Oryza sativa); 250 g ai/ha): 0 | Plant response rating, Wheat ([9]; 125 g ai/ha): 0 | Plant response rating, Wheat ([9]; 500 g ai/ha): 50 | Plant response rating, Ragweed ([10]; 16 g ai/ha): 0 | Plant response rating, Ragweed ([10]; 31 g ai/ha): 0 | Plant response rating, Ragweed ([10]; 62 g ai/ha): 0 | Plant response rating, Ragweed ([10]; 125 g ai/ha): 0 | Plant response rating, Ryegrass, Italian ([11]; 16 g ai/ha): 0 | Plant response rating, Ryegrass, Italian ([11]; 31 g ai/ha): 0 | Plant response rating, Ryegrass, Italian ([11]; 62 g ai/ha): 30 | Plant response rating, Ryegrass, Italian ([11]; 125 g ai/ha): 60 | Plant response rating, Pigweed ([12]; 125 g ai/ha): 10 | Plant response rating, Pigweed ([12]; 500 g ai/ha): 50 | Plant response rating, Morningglory ([13]; 125 g ai/ha): 70 | Plant response rating, Morningglory ([13]; 500 g ai/ha): 80 | Plant response rating, Lambsquarters ([14]; 16 g ai/ha): 0 | Plant response rating, Lambsquarters ([14]; 31 g ai/ha): 0 | Plant response rating, Lambsquarters ([14]; 62 g ai/ha): 0 | Plant response rating, Lambsquarters ([14]; 125 g ai/ha): 98 | Plant response rating, Morningglory ([15]; 16 g ai/ha): 0 | Plant response rating, Morningglory ([15]; 31 g ai/ha): 0 | Plant response rating, Morningglory ([15]; 62 g ai/ha): 0 | Plant response rating, Morningglory ([15]; 125 g ai/ha): 0 | Plant response rating, Crabgrass, Large ([16]; 16 g ai/ha): 70 | Plant response rating, Crabgrass, Large ([16]; 31 g ai/ha): 95 | Plant response rating, Crabgrass, Large ([16]; 62 g ai/ha): 100 | Plant response rating, Crabgrass, Large ([16]; 125 g ai/ha): 100 | Plant response rating, Wheat ([17]; 125 g ai/ha): 0 | Plant response rating, Wheat ([17]; 500 g ai/ha): 0
